SMILES strings stand for the structures. Where only a bound is given, the exact number is not on record here.

The nature of data set [1]: Clearance in Wistar-Han rat at 1 mg/kg, iv. The following applies: in vivo. It counts as ADME, organism-based. Set-up: dose 1 mg/kg, route intravenous.
A short description of data set [2]: Lipophilicity, log D of the compound by shake-flask method. The class given is physicochemical. The conditions noted are these: octanol/water.
A short description of data set [3]: Cmax in Wistar-Han rat at 5 mg/kg, po. The class given is ADME, organism-based. Set-up: dose 5 mg/kg, route oral. The conditions noted are these: in vivo.
The nature of data set [4]: Half life in Wistar-Han rat at 1 mg/kg, iv. It counts as ADME, organism-based. Set-up: dose 1 mg/kg, route intravenous. The following applies: in vivo.
A short description of data set [5]: Intrinsic clearance in human liver microsomes. It counts as ADME, Microsome. The following applies: read-out: CLH.
A short description of data set [6]: Oral bioavailability in Wistar-Han rat at 5 mg/kg. It counts as ADME, organism-based. The following applies: in vivo.
Data set [7] in a line: Intrinsic clearance in rat liver microsomes. The class given is ADME, Microsome. The conditions noted are these: read-out: CLH. In general terms: Liver microsomes are vesicles of endoplasmic reticulum, rich in cytochrome P450 enzymes.
The nature of data set [8]: AUC in Wistar-Han rat at 5 mg/kg, po. The class given is ADME, organism-based. Set-up: dose 5 mg/kg, route oral. The conditions noted are these: plasma.
Data set [9] is described as follows: Volume of distribution at steady state in Wistar-Han rat at 1 mg/kg, iv. The class given is ADME, organism-based. Set-up: dose 1 mg/kg, route intravenous. The following applies: in vivo, read-out: Vdss.

For orientation: clearance means the rate of elimination divided by the concentration. Lower therefore signals a low capacity for elimination. For orientation: logD means the decadic logarithm of the distribution of all forms, ionised or not, between an organic phase and buffer at a given pH. A higher logD goes with a more lipophilic compound. For orientation: Cmax means the peak of the concentration-time curve. Broadly, the half-life is the time in which the quantity being followed falls by half. By bioavailability is commonly meant the share of a dose that reaches the circulation, judged against a reference dose that is usually intravenous. Usually AUC stands for concentration integrated over time. A low value points to less exposure. In turn, `CC(C)Oc1cc(Oc2ccc(S(C)(=O)=O)cc2)cc(-c2nccc(=O)[nH]2)c1` yielded a clearance in data set [1] of 61 mL/min/kg. This compound also displayed a logD in data set [2] of 2.14. The same compound yielded a Cmax in data set [3] of 150 ng/mL. The compound further had a half-life in data set [4] of 1.5 h. Moreover, the CLint scaled was less than 9.8 mL/min/kg in data set [5] and 105 mL/min/kg in data set [7]. In [6], the bioavailability stood at 29%. In data set [8], this compound showed an AUC of 703 ng·h/mL. Further, the Vd in [9] worked out at 6.41 L/kg.
Consider `Cc1cnc(-c2cc(Oc3ccc(S(C)(=O)=O)cc3)cc(OC(C)C)c2)[nH]c1=O`, for which, in [1], the clearance was 13 mL/min/kg. Also, in [2], the pH-dependent lipophilicity (logD) came to 2.68. In [3], this compound showed a Cmax of 31 ng/mL. The compound further gave a half-life in data set [4] of 5.3 h. In addition, the CLint scaled in data set [5] is less than 8 mL/min/kg; in data set [7], 189 mL/min/kg. The bioavailability in [6] was 2%. In [8], this compound displayed an AUC of 141 ng·h/mL. Moreover, the Vd in data set [9] was found to be 0.746 L/kg.
In the case of `Cc1cc(=O)[nH]c(-c2cc(Oc3ccc(S(C)(=O)=O)cc3)cc(OC(C)C)c2)n1`, in [2], the pH-dependent lipophilicity (logD) came out at 2.43. The results for the CLint scaled in [5] and in data set [7] were less than 8 mL/min/kg and 96 mL/min/kg, respectively.
In [2], `CCc1cnc(-c2cc(Oc3ccc(S(C)(=O)=O)cc3)cc(OC(C)C)c2)[nH]c1=O` displayed a log distribution coefficient (logD) of 3.11. The CLint scaled in [5] is less than 8 mL/min/kg; in data set [7], 171 mL/min/kg.
For `COc1cnc(-c2cc(Oc3ccc(S(C)(=O)=O)cc3)cc(OC(C)C)c2)[nH]c1=O`, the logD in [2] is 2.21. Besides, the CLint scaled is less than 8 mL/min/kg in [5] and less than 25.4 mL/min/kg in data set [7].
The like results for `CC(C)Oc1cc(Oc2ccc(S(C)(=O)=O)cc2)cc(-c2ncc(Cl)c(=O)[nH]2)c1` were, in that order, 2.04, less than 8 mL/min/kg and less than 25.4 mL/min/kg.
In [2], `CNS(=O)(=O)c1ccc(Oc2cc(OC(C)C)cc(-c3nccc(=O)[nH]3)c2)cc1` returned a pH-dependent lipophilicity (logD) of 2.63. Also, in data set [5], the CLint scaled is less than 8 mL/min/kg.
Take `CC(C)Oc1cc(Oc2cnc(C(=O)N(C)C)c(F)c2)cc(-c2nccc(=O)[nH]2)c1`: the pH-dependent lipophilicity (logD) in data set [2] was found to be 1.54. Moreover, the results for the CLint scaled in [5] and in data set [7] were 8.3 mL/min/kg and 102 mL/min/kg, respectively.
The like results for `CC(C)Oc1cc(Oc2cnc(C(=O)N(C)C)nc2)cc(-c2nccc(=O)[nH]2)c1` were, in that order, 0.97, less than 8 mL/min/kg and less than 25.4 mL/min/kg.
Take `CC(C)Oc1cc(Oc2cnc(C(=O)N(C)C)cn2)cc(-c2nccc(=O)[nH]2)c1`: the log distribution coefficient (logD) in data set [2] came out at 1.34. Further, the CLint scaled in data set [5] was less than 8 mL/min/kg; in [7], 47 mL/min/kg.
The compound `CCC(CC)Oc1cc(Oc2cnc(C(=O)N(C)C)nc2)cc(-c2nccc(=O)[nH]2)c1` had a clearance in data set [1] of 44 mL/min/kg. For the same compound, the logD in data set [2] was 1.91. In addition, in [3], the peak level (Cmax) was 412 ng/mL. This compound also showed a half-life in data set [4] of 6 h. Besides, the CLint scaled was found to be 22.4 mL/min/kg in data set [5] and 91 mL/min/kg in [7]. For the same compound, the bioavailability in [6] turned out to be 32%. In [8], this compound came in with an exposure (AUC) of 580 ng·h/mL. Moreover, in data set [9], the Vd came out at 5.79 L/kg.
Turning to `CN(C)C(=O)c1ncc(Oc2cc(OC3CCCC3)cc(-c3nccc(=O)[nH]3)c2)cn1`, the log distribution coefficient (logD) in data set [2] turned out to be 1.74. For the same compound, the figures for the CLint scaled in data set [5] and in [7] were less than 8 mL/min/kg and 106 mL/min/kg, respectively.
`C[C@@H](CO)Oc1cc(Oc2cnc(C(=O)N(C)C)nc2)cc(-c2nccc(=O)[nH]2)c1` showed a log distribution coefficient (logD) in [2] of -0.02. Further, the CLint scaled was less than 8 mL/min/kg in [5] and 26 mL/min/kg in data set [7].
For `COC[C@H](C)Oc1cc(Oc2cnc(C(=O)N(C)C)nc2)cc(-c2nccc(=O)[nH]2)c1`, the pH-dependent lipophilicity (logD) in data set [2] was determined as 0.43. Moreover, the CLint scaled in data set [5] was less than 8 mL/min/kg; in data set [7], 38 mL/min/kg.
Consider `Cc1cnc(-c2cc(Oc3cnc(C(=O)N(C)C)nc3)cc(OC(C)C)c2)[nH]c1=O`, for which the logD in [2] was determined as 1.48. In addition, the CLint scaled in data set [5] is less than 8 mL/min/kg; in data set [7], less than 25.4 mL/min/kg.
`COC[C@H](C)Oc1cc(Oc2cnc(C(=O)N(C)C)cn2)cc(-c2nccc(=O)[nH]2)c1` showed a log distribution coefficient (logD) in data set [2] of 0.81. The results for the CLint scaled in data set [5] and in data set [7] were less than 8 mL/min/kg and less than 25.4 mL/min/kg, respectively.
In data set [2], `Cc1cnc(-c2cc(Oc3ccc(S(=O)(=O)N(C)C)cc3)cc(O[C@@H](C)CO)c2)[nH]c1=O` registered a logD of 2.26. Also, the CLint scaled in data set [5] stood at 12 mL/min/kg.
Take `CNS(=O)(=O)c1ccc(Oc2cc(O[C@@H](C)CO)cc(-c3ncc(C)c(=O)[nH]3)c2)cc1`: the logD in [2] came to 2.01. Also, the CLint scaled in data set [5] is less than 8 mL/min/kg; in data set [7] it was less than 25.4 mL/min/kg.
`CCS(=O)(=O)c1ccc(Oc2cc(O[C@@H](C)CO)cc(-c3nccc(=O)[nH]3)c2)cc1` came in with a clearance in [1] of 19 mL/min/kg. Moreover, the logD in data set [2] is 1.42. For the same compound, the Cmax in data set [3] came to 74 ng/mL. This compound had a half-life in data set [4] of 1.8 h. Also, the CLint scaled is less than 8 mL/min/kg in data set [5] and less than 25.4 mL/min/kg in data set [7]. The compound further showed a bioavailability in [6] of 6%. Moreover, the AUC in data set [8] came to 253 ng·h/mL. Moreover, the Vd in [9] was 0.746 L/kg.
In turn, `Cc1ccc(NC(=O)c2cc(Oc3ccc(S(C)(=O)=O)cc3)cc(OC(C)C)c2)nc1` had a logD in [2] of 4.05. Further, the figures for the CLint scaled in data set [5] and in [7] were 17 mL/min/kg and 97 mL/min/kg, respectively.
`CC(C)Oc1cc(Oc2ccc(S(C)(=O)=O)cc2)cc(-c2cccc(=O)[nH]2)c1` registered a pH-dependent lipophilicity (logD) in [2] of 2.82. Moreover, the CLint scaled was less than 8 mL/min/kg in data set [5] and 349 mL/min/kg in [7].
In the same order, the values of `CC(C)Oc1cc(Oc2ccc(S(C)(=O)=O)cc2)cc(-c2cncc(=O)[nH]2)c1` are 2.27, 11 mL/min/kg and 61 mL/min/kg.

These data come from ChEMBL document CHEMBL2407069, “Pyrimidone-based series of glucokinase activators with alternative donor-acceptor motif” (Bioorg Med Chem Lett, 2013).
